From patent US20230406883A1, “COMPOUNDS AND THEIR USE IN TREATMENT OF TACHYKININ RECEPTOR MEDIATED DISORDERS” (Embark Biotech ApS, priority 2020, published 2023)
Where “and” joins values, the source holds several entries; their conditions need not be identical. Equal values may be shown once. Numbered stars: 1 amine (or outer) side, 2 acyl side, 3 side chain; on linkers, the order of the positions; unused ones are H or OH. Square brackets hold non-standard residues; d marks the D form. Peptide text beside a SMILES is read from it. * marks the point of attachment. C20 diacid = O=C(O)CCCCCCCCCCCCCCCCCCC(=O)*; C18 diacid = O=C(O)CCCCCCCCCCCCCCCCC(=O)*; γGlu = O=C(O)[C@H](CCC(=O)[*:2])N[*:1]; C14 diacid = O=C(O)CCCCCCCCCCCCC(=O)*; Conj‑Neu‑C18DA = not defined here; Cha = N[C@@H](CC1CCCCC1)C(=O)O; NMeL = CN[C@@H](CC(C)C)C(=O)O; Nle = CCCC[C@H](N)C(=O)O; AEEA = NCCOCCOCC(=O)O

Key:
Test in all cases: IP3 assay (inositol trisphosphate, 3H-myoinositol) in transiently transfected COS-7 cells
Type in all cases: cell-based
hNK1R = target: T1, hNK1R (Homo sapiens, UniProt P25103); conditions: for hNK1R, IP3 Efficacy / EC50: COS-7 cells; for hNK1R, IP3 Efficacy: figure legends: percent of 10^-6 M NKA; for EC50: 0.2% ovalbumin buffer
T1 construct: host or cells: COS-7
Method: (§1) Agonist-induced G-protein coupled receptor (GPCR) activation was measured by an Inositol-1,4,5-Trisphosphate [^3H] Radioreceptor Assay (IPs Assay). Assays were carried out using COS-7 cells transiently transfected by calcium phosphate transfection with a vector pcDNA3.1(+) encoding one of the indicated receptors (Genscript). Briefly, DNA mixed with CaCl2 (2 M) and TE-buffer (10 mM Tris-HCl, 1 mM EDTA, pH 7.5) was dropwise added to 2×HBS (50 mM HEPES, 280 mM NaCl, 1.5 mM NaH2PO4, pH 7.2) and incubated for 45 min at room temperature (22±2° C.). The mixture and a final concentration of 100 μM Chloroquine were added to the cells and left to incubate for 5 hours at 37° C. under standard cell culture conditions (10% CO2) before changing medium to fresh medium containing 5 μl/mL Myo-[2-^3H(N)]-inositol (labelling medium).
(§2) The IP3 assay takes advantage of the tachykinin receptors' ability to induce production of the inositol trisphosphate (IP3) second messenger upon agonist (ligand) binding on receptor expressing cells following an initial ^3H-inositol labelling period. In effect this means that production of the second messenger IP3 as a measure of receptor activity can be assessed by counting ^3H-activity.
(§3) Assay solutions used: Wash buffer (HBSS), Assay buffer (HBSS+10 mM LiCl and 0,2% w/v ovalbumin), Lysis buffer (10 mM formic acid), and SPA YSI beads (12.5 mg/ml in H2O). The assay was performed the day after transfection. Briefly, labelling medium was aspirated, and plates were washed ×1 in wash buffer before adding 100 μl assay buffer, pre-incubated for 30 min followed by 120 min incubation with agonist, both at 37° C. After incubation, plates were immediately placed on ice and the incubation medium was aspirated and 40 μl of 10 mM formic acid per well was added. Plates were incubated for at least 30 min on ice. 60 μl (1 mg/well) SPA YSI beads/well was pipetted into a solid white 96 wells plate and 35 μl of the lysis solution was transferred to the plate before covering plates with seal cover and shaking for 10 min. (max speed). Centrifuge plates and leave for 8 hours at room temperature before counting the plates in a MicroBeta plate counter (Perkin Elmer).

hNK3R = target: T2, hNK3R (Homo sapiens, UniProt P29371); conditions: for hNK3, IP3 Efficacy / EC50: COS-7 cells; for hNK3, IP3 Efficacy: figure legends: percent of 10^-6 M NKA; for EC50: 0.2% ovalbumin buffer, read-out: hNK3, IP3 EC50
T2 construct: host or cells: COS-7
T2 sequence (P29371 1-465): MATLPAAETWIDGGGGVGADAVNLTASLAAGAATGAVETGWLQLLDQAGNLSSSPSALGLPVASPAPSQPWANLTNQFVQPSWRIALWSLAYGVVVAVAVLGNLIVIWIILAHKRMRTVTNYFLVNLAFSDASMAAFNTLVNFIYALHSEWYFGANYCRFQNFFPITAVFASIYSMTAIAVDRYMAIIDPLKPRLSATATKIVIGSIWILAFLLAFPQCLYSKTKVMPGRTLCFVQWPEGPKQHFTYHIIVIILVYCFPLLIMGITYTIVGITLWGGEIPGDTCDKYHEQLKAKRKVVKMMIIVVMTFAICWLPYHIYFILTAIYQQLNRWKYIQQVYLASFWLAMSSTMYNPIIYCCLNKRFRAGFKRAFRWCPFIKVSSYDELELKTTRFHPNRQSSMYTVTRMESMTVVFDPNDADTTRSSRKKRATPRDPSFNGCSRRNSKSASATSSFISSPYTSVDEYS
Method: as §1, §2, §3

hNK2R = target: T3, hNK2R (Homo sapiens, UniProt P21452); conditions: for hNK2R, IP3 Efficacy / EC50: COS-7 cells; for hNK2R, IP3 Efficacy: figure legends: percent of 10^-6 M NKA; for EC50: 0.2% ovalbumin buffer
T3 construct: host or cells: COS-7
T3 sequence (P21452 1-398): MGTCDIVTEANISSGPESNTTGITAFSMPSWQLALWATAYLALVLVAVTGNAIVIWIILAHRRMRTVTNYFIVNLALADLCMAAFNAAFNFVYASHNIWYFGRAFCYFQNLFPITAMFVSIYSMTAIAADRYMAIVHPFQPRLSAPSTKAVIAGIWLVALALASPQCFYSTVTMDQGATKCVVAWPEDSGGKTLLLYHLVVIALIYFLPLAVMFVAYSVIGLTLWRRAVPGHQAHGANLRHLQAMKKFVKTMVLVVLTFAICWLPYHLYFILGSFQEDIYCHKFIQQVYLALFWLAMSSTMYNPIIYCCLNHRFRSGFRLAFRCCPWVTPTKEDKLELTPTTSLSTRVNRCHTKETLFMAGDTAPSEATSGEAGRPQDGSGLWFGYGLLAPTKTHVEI
Method: as §1, §2, §3

T1 sequence (P25103 whole entry): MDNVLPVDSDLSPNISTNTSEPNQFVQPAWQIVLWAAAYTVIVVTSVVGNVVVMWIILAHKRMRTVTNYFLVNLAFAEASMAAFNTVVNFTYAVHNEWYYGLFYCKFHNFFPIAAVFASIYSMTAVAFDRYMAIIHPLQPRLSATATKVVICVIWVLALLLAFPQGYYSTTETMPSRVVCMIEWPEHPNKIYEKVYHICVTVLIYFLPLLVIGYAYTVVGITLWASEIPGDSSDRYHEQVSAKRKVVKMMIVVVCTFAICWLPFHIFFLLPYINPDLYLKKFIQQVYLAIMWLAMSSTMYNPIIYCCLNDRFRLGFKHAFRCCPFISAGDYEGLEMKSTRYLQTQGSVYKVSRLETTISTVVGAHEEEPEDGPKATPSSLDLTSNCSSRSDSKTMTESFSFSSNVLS

Compound	hNK1R receptor activation, in words (hNK1R)	hNK1R, IP3 Efficacy (hNK1R)	hNK3R receptor activation, in words (hNK3R)	hNK3, IP3 Efficacy (hNK3R)	hNK2R receptor activation, in words (hNK2R)	hNK2R, IP3 Efficacy (hNK2R)	EC50 (hNK2R)	EC50 (hNK1R)	EC50 (hNK3R)
*Asp;Lys;Val;Tyr;Gly;NmLeu;Nle;NH2 ({Conj‑Neu‑C18DA}-DKVYG[NMeL][Nle]-NH2; reading uncertain; also: printed as *Asp;Lys;Val;Tyr;Gly;NmLeu;Nle;NH2) [compound 363, * is Conj-Neu-C18DA protractor on N-terminal α-amino group]	complete loss of receptor activation on NK1-3Rs	0%	complete loss of receptor activation on NK1-3Rs	0%	complete loss of receptor activation on NK1-3Rs	0%			
CCCC[C@H](NC(=O)[C@H](CC(C)C)N(C)C(=O)CNC(=O)[C@@H](NC(=O)[C@H](Cc1ccc(O)cc1)NC(=O)[C@H](CCCCN)NC(=O)[C@H](CC(=O)O)NC(=O)COCCOCCNC(=O)COCCOCCNC(=O)CC[C@H](NC(=O)CCCCCCCCCCCCC(=O)O)C(=O)O)C(C)C)C(N)=O [compound 368, *Asp;Lys;Tyr;Val;Gly;NmLeu;Nle;NH2] ({C14 diacid-γGlu-AEEA-AEEA}-DKYVG[NMeL][Nle]-NH2)		0%		0%		70%	19 nM		
*Asp;Lys;dPhe;Val;Gly;NmLeu;Nle;NH2 (DKFVGLL; N-terminal Conj-Neu-C18DA protractor; C-terminal amide; (1)..(1) Conj-Neu-C18; MOD_RES (3)..(3) D-Phe; MOD_RES (6)..(6) N-methyl-Leucine; MOD_RES (7)..(7) AMIDATION; MOD_RES (7)..(7) Nle) [compound 356, * is Conj-Neu-C18DA protractor on N-terminal α-amino group]		0%		0%	completely destroys NK2R activation	0%			
CCCC[C@H](NC(=O)[C@H](CC(C)C)N(C)C(=O)CNC(=O)[C@@H](NC(=O)[C@H](Cc1ccc(O)cc1)NC(=O)[C@H](CCCCN)NC(=O)[C@H](CC(=O)O)NC(=O)COCCOCCNC(=O)COCCOCCNC(=O)CC[C@H](NC(=O)CCCCCCCCCCCCCCCCCCC(=O)O)C(=O)O)C(C)C)C(N)=O [compound 380, *Asp;Lys;Tyr;Val;Gly;NmLeu;Nle;NH2] ({C20 diacid-γGlu-AEEA-AEEA}-DKYVG[NMeL][Nle]-NH2)		20%		30%		90%	1.5 nM	58 nM	~160 nM
CCCC[C@H](NC(=O)[C@H](CC(C)C)NC(=O)CNC(=O)[C@@H](NC(=O)[C@H](Cc1ccccc1)NC(=O)[C@H](CCCCN)NC(=O)[C@H](CC(=O)O)NC(=O)COCCOCCNC(=O)COCCOCCNC(=O)CC[C@H](NC(=O)CCCCCCCCCCCCCCCCC(=O)O)C(=O)O)C(C)C)C(N)=O [compound 389, *Asp;Lys;Phe;Val;Gly;Leu;Nle;NH2]		108% and 100%		100% and 60%		83% and 80%	2.8 nM and 2.9 nM	16 nM and 15 nM	35 nM
COc1ccc(C[C@H](NC(=O)[C@H](CC(C)C)N(C)C(=O)CNC(=O)[C@@H](NC(=O)[C@H](Cc2ccccc2)NC(=O)[C@H](CCCCN)NC(=O)[C@H](CC(=O)O)NC(=O)COCCOCCNC(=O)COCCOCCNC(=O)CC[C@H](NC(=O)CCCCCCCCCCCCCCCCC(=O)O)C(=O)O)C(C)C)C(N)=O)cc1 [compound 370, *Asp;Lys;Phe;Val;Gly;NmLeu;4-MeOPhe;NH2] ({C18 diacid-γGlu-AEEA-AEEA}-DKFVG[NMeL]Y(Me)-NH2)		20%		0%		90%	10 nM		
CCCC[C@H](NC(=O)[C@H](CC(C)C)N(C)C(=O)CNC(=O)[C@@H](NC(=O)[C@H](Cc1ccccc1)NC(=O)[C@H](CO)NC(=O)[C@H](CC(=O)O)NC(=O)[C@@H](NC(=O)[C@H](CCCCN)NC(=O)COCCOCCNC(=O)COCCOCCNC(=O)CC[C@H](NC(=O)CCCCCCCCCCCCCCCCC(=O)O)C(=O)O)[C@@H](C)O)C(C)C)C(N)=O [compound 312, *Lys;Thr;Asp;Ser;Phe;Val;Gly;NmLeu;Nle;NH2]		44%		80%		65%	25 nM	~178 nM	513 nM
CCCC[C@H](NC(=O)[C@H](CC(C)C)N(C)C(=O)CNC(=O)[C@@H](NC(=O)[C@H](Cc1ccccc1)NC(=O)[C@H](CCCCN)NC(=O)[C@@H](N)CC(=O)O)C(C)C)C(N)=O [compound 375, Asp;Lys;Phe;Val;Gly;NmLeu;Nle;NH2]		110%		35%		100%	0.5 nM	12 nM	~50000 nM
CCCC[C@H](NC(=O)[C@H](CC(C)C)N(C)C(=O)CNC(=O)[C@H](CCCNC(=N)N)NC(=O)[C@H](Cc1ccccc1)NC(=O)[C@H](CCCCN)NC(=O)[C@H](CCC(=O)O)NC(=O)COCCOCCNC(=O)COCCOCCNC(=O)CC[C@H](NC(=O)CCCCCCCCCCCCCCCCC(=O)O)C(=O)O)C(N)=O [compound 315, *Glu;Lys;Phe;Arg;Gly;NmLeu;Nle;NH2] ({C18 diacid-γGlu-AEEA-AEEA}-EKFRG[NMeL][Nle]-NH2)		0%		0%		60%	47 nM		
CC(C)C[C@@H](C(=O)N[C@@H](CC1CCCCC1)C(N)=O)N(C)C(=O)CNC(=O)[C@@H](NC(=O)[C@H](Cc1ccc(O)cc1)NC(=O)[C@H](CCCCN)NC(=O)[C@H](CC(=O)O)NC(=O)COCCOCCNC(=O)COCCOCCNC(=O)CC[C@H](NC(=O)CCCCCCCCCCCCCCCCC(=O)O)C(=O)O)C(C)C [compound 313, *Asp;Lys;Tyr;Val;Gly;NmLeu;cHexAla;NH2] ({C18 diacid-γGlu-AEEA-AEEA}-DKYVG[NMeL][Cha]-NH2)		20%		0%		70%	23 nM		
